Tested on: CDK4
Assay: Western blot of Rb phosphorylation (S780, S807/811) as cellular CDK4 activity
Assay type: cell-based, human
Conditions: serum-synchronized MCF-7 cells, dose of 500 μM
Experimental: Cells were synchronized to G1 via serum starvation. Cells were plated at 50% confluency and allowed to adhere overnight in serum-containing media. The next morning, the cells were gently washed twice with HBSS, and serum-free media was added. Cells were allowed to incubate an additional […], […]. Final cell confluency should remain below 75% for optimal results.
Cells were seeded in full media at 8 e5 cells/well in a 6-well plate. They were then serum-synchronized, as outlined in Example 15, and treated with compound as described previously. Cells were monitored by eye for cell death and harvested once high-dose cells were round but not detached. Cells were transferred to ice and washed twice gently with 1 mL ice-cold PBS. 10 mL of lysis buffer was prepared by dissolved a protease-inhibitor table (Pierce; cat no. A32953) and a phosphatase-inhibitor tablet (Roche; cat no. 4906845001) in 10 mL PBS (1% Triton X-100). Cells were scraped to harvest, transferred to 1.5 mL Eppendorf tubes, and incubated at 4° C. for 30 min on a rotator. Samples were spun at 5000×g for 10 min to clarify lysate. Supernatant was transferred to a new tube and protein concentration quantified via BCA assay (Pierce; cat no. 23225). Samples were normalized to the lowest concentration using chilled lysis buffer. […]

For `O=C(N1CC2COCC2C1)N1OC1c1ccccc1` (stereo not shown) [Compound 148], which “signal from pRb antibodies (cellular CDK4 activity)” value is on record?
The value was “marked decrease in signal”.
